# Tested on: Vero cells
# Experiment: Cytotoxicity, alamar blue assay against Vero cells
# Format: cell-based
# Conditions: Chlorocebus sabaeus, Vero, read-out: ToxIC50
row,SMILES,IC50 [µg/mL]
1,"O=C(NCCc1ccccc1)c1ccc([N+](=O)[O-])o1 [Compound 27, 5-Nitro-furan-2-carboxylic acid phenethyl-amide]",25.2
2,"COc1ccc(CCNC(=O)c2ccc([N+](=O)[O-])o2)cc1OC [Compound 31, 5-Nitro-furan-2-carboxylic acid [2-(3,4-dimethoxy-phenyl)-ethyl]-amide]",27.4

# Same assay, conditions: Chlorocebus sabaeus; Table 1; Vero cells, alamar blue; unit inferred; read-out: ToxIC50
row,SMILES,IC50 [µg/mL]
1,"O=C(NC1CCc2ccccc21)c1ccc([N+](=O)[O-])o1 (stereo not drawn) [Compound 26, 5-Nitro-furan-2-carboxylic acid indan-1-ylamide]",10.3
2,"O=C(NC12CC3CC(CC(C3)C1)C2)c1ccc([N+](=O)[O-])o1 [Compound 16, 5-Nitro-furan-2-carboxylic acid adamantan-1-ylamide]",9.43
3,"O=C(NC1CCCCC1)c1ccc([N+](=O)[O-])o1 [Compound 15, 5-Nitro-furan-2-carboxylic acid cyclohexylamide]",9.08
4,"O=C(NCc1ccccc1Cl)c1ccc([N+](=O)[O-])o1 [Compound 21, 5-Nitro-furan-2-carboxylic acid 2-chloro-benzylamide]",11.8
5,"COc1ccc(CNC(=O)c2ccc(Br)o2)cc1 [Compound 32, 5-Bromo-furan-2-carboxylic acid 4-methoxy-benzylamide]",90.5
6,"CCOC(=O)c1ccc(C(=O)Nc2cccc(OC)c2)o1 [Compound 40, 5-(3-Methoxy-phenylcarbamoyl)-furan-2-carboxylic acid ethyl ester]",200
7,"COc1cccc(NC(=O)c2ccc([S+]([O-])c3ccccc3)o2)c1 (stereo not drawn) [Compound 38, 5-Benzenesulfinyl-furan-2-carboxylic acid(3-methoxy-phenyl)-amide]",65
8,"COc1ccc(CNC(=O)c2ccc([N+](=O)[O-])o2)cc1 [Compound 20, 5-Nitro-furan-2-carboxylic acid 4-methoxy-benzylamide]",16.4
9,"COc1cc(CNC(=O)c2ccc([N+](=O)[O-])o2)cc(OC)c1OC [Compound 24, 5-Nitro-furan-2-carboxylic acid 3,4,5-trimethoxy-benzylamide]",23.6
10,"COc1cccc(NC(=O)c2ccc(Sc3ccccc3)o2)c1 [Compound 36, 5-Phenylsulfanyl-furan-2-carboxylic acid(3-methoxy-phenyl)-amide]",25.7
11,"O=C(Nc1cccc(O)c1)c1ccc([N+](=O)[O-])o1 [Compound 35, 5-Nitro-furan-2-carboxylic acid(3-hydroxy-phenyl)-amide]",12.5
12,"COc1cccc(NC(=O)c2ccc(S(=O)(=O)c3ccccc3)o2)c1 [Compound 39, 5-Benzenesulfonyl-furan-2-carboxylic acid(3-methoxy-phenyl)-amide]",25.9
13,"O=C(Nc1ccccc1)c1ccc([N+](=O)[O-])o1 [Compound 17, 5-Nitro-furan-2-carboxylic acid phenylamide]",2.19

# Same assay, conditions: Table 1; Vero cells, alamar blue; unit not given
row,SMILES,ToxIC50
1,"COc1ccc(NC(=O)c2ccc([N+](=O)[O-])o2)cc1 [Compound 14, 5-Nitro-furan-2-carboxylic acid(4-methoxy-phenyl)-amide]",21.44
2,"O=C(Nc1cccc(Br)c1)c1ccc([N+](=O)[O-])o1 [Compound 11, 5-Nitro-furan-2-carboxylic acid(3-bromo-phenyl)-amide]",15.37
3,"COc1ccc(CNC(=O)c2ccc([N+](=O)[O-])o2)c(OC)c1 [Compound 22, 5-Nitro-furan-2-carboxylic acid 2,4-dimetboxy-benzylamide]",5.38
4,"N#Cc1ccc(NC(=O)c2ccc([N+](=O)[O-])o2)cc1 [Compound 19, 5-Nitro-furan-2-carboxylic acid(4-cyano-phenyl)-amide]",3.53
5,"CC(NC(=O)c1ccc([N+](=O)[O-])o1)c1ccccc1 (stereo not drawn) [Compound 29, 5-Nitro-furan-2-carboxylic acid(1-phenyl-ethyl)-amide]",25.63

# Tested on: M. tuberculosis H37Ra
# Experiment: MIC against M. tuberculosis H37Ra, micro broth dilution in microtiter plates
# Conditions: M. tuberculosis H37Ra
row,SMILES,anti-tuberculosis MIC activity
1,"O=C(NCc1cccc(N2CCC(Cc3ccccc3)CC2)c1)c1ccc([N+](=O)[O-])o1 [Compound 70, 5-Nitro-furan-2-carboxylic acid 3-(4-benzyl-piperidin-1-yl)-benzylamide]",extremely potent
2,O=C(c1ccc([N+](=O)[O-])o1)N1CCC(Cc2ccccc2)CC1 [Compound 72],good activity
3,O=C(c1ccc([N+](=O)[O-])o1)N1CCN(Cc2ccccc2)CC1 [Compound 73],good activity
4,COc1cc2c(cc1OC)CN(C(=O)c1ccc([N+](=O)[O-])o1)CC2 [Compound 75],very potent

# Same assay, conditions: Mycobacterium tuberculosis, H37RA, 168 h, read-out: TB MIC, Table 1; M. tuberculosis H37Ra, 7 days at 37° C., MIC90
row,SMILES,MIC [µg/mL]
1,"COc1cccc(NC(=O)c2ccc(Sc3ccccc3)o2)c1 [Compound 36, 5-Phenylsulfanyl-furan-2-carboxylic acid(3-methoxy-phenyl)-amide]",25
2,"COc1ccc(CCNC(=O)c2ccc([N+](=O)[O-])o2)cc1OC [Compound 31, 5-Nitro-furan-2-carboxylic acid [2-(3,4-dimethoxy-phenyl)-ethyl]-amide]",0.4
3,"O=C(Nc1cccc(OCc2ccccc2)c1)c1ccc([N+](=O)[O-])o1 [Compound 37, 5-Nitro-furan-2-carboxylic acid(3-benzyloxy-phenyl)-amide]",12.5

# Same assay, conditions: Mycobacterium tuberculosis, H37RA, Table 6; M. tuberculosis H37Ra, MIC90
row,SMILES,MIC [µg/mL]
1,"COc1ccc(CN2CCN(C(=O)c3ccc([N+](=O)[O-])o3)CC2)c(OC)c1 [Compound 89, [4-(2,4-Dimethoxy-benzyl)-piperazin-1-yl]-(5-nitro-furan-2-yl)-methanone]",0.2
2,"O=C(c1ccc([N+](=O)[O-])o1)N1CCN(Cc2cccc(OCc3ccccc3)c2)CC1 [Compound 87, [4-(3-Benzyloxy-benzyl)-piperazin-1-yl]-(5-nitro-furan-2-yl)-methanone]",0.4
3,"CCN(CC)c1ccc(CN2CCN(C(=O)c3ccc([N+](=O)[O-])o3)CC2)cc1 [Compound 88, [4-(4-Diethylamino-benzyl)-piperazin-1-yl]-(5-nitro-furan-2-yl)-methanone]",0.4
4,"CN1CCN(/N=C/c2ccc(CNC(=O)c3ccc([N+](=O)[O-])o3)cc2)CC1 [Compound 111, 5-Nitro-furan-2-carboxylic acid 4-[(4-methyl-piperazin-1-ylimino)-methyl]-benzylamide]",0.1
5,"CC(=O)c1ccc(N2CCN(C(=O)c3ccc([N+](=O)[O-])o3)CC2)cc1 [Compound 91, 1-{4-[4-(5-Nitro-furan-2-carbonyl)-piperazin-1-yl]-phenyl}-ethanone]",0.0031
6,"O=C(c1ccc([N+](=O)[O-])o1)N1CCN(Cc2ccc(F)cc2)CC1 [Compound 90, [4-(4-Fluoro-benzyl)-piperazin-1-yl]-(5-nitro-furan-2-yl)-methanone]",0.4
7,"COc1ccc(C(=O)N2CCN(C(=O)c3ccc([N+](=O)[O-])o3)CC2)cc1 [Compound 110, [4-(4-Methoxy-benzoyl)-piperazin-1-yl]-(5-nitro-furan-2-yl)-methanone]",0.05
8,"COc1ccc(CN2CCN(C(=O)c3ccc([N+](=O)[O-])o3)CC2)cc1 [Compound 85, [4-(4-Methoxy-benzyl)-piperazin-1-yl]-(5-nitro-furan-2-yl)-methanone]",0.1
9,"COc1ccc(N2CCN(C(=O)c3ccc([N+](=O)[O-])o3)CC2)cc1 [Compound 107, [4-(4-Methoxy-phenyl)-piperazin-1-yl]-(5-nitro-furan-2-yl)-methanone]",0.05
10,"O=C(c1ccc(F)cc1)N1CCN(C(=O)c2ccc([N+](=O)[O-])o2)CC1 [Compound 109, [4-(4-Fluoro-benzoyl)-piperazin-1-yl]-(5-nitro-furan-2-yl)-methanone]",0.05
11,"COc1cccc(CN2CCN(C(=O)c3ccc([N+](=O)[O-])o3)CC2)c1 [Compound 86, [4-(3-Methoxy-benzyl)-piperazin-1-yl]-(5-nitro-furan-2-yl)-methanone]",0.4
12,"O=C(c1ccc([N+](=O)[O-])o1)N1CCN(c2ncccn2)CC1 [Compound 81, (5-Nitro-furan-2-yl)-(4-pyrimidin-2-yl-piperazin-1-yl)-methanone]",0.1

# Same assay, conditions: Table 1; M. tuberculosis H37Ra, 7 days at 37° C., MIC90
row,SMILES,TB MIC [µg/mL]
1,COc1ccc(N(C)C(=O)c2ccc([N+](=O)[O-])o2)cc1 [Compound 42],6.25
2,"COc1ccc(NC(=O)c2ccc([N+](=O)[O-])o2)cc1 [Compound 14, 5-Nitro-furan-2-carboxylic acid(4-methoxy-phenyl)-amide]",0.4
3,O=C(c1ccc([N+](=O)[O-])o1)N1CCc2ccccc21 [Compound 43],0.8
4,O=C(Nc1cccnc1)c1ccc([N+](=O)[O-])o1 [Compound 45],6.25
5,"O=C(Nc1cccc(Br)c1)c1ccc([N+](=O)[O-])o1 [Compound 11, 5-Nitro-furan-2-carboxylic acid(3-bromo-phenyl)-amide]",1.6
6,"COc1ccc(CNC(=O)c2ccc([N+](=O)[O-])o2)c(OC)c1 [Compound 22, 5-Nitro-furan-2-carboxylic acid 2,4-dimetboxy-benzylamide]",0.4
7,COc1ccc(NC(=O)c2ccc([N+](=O)[O-])o2)cc1Cl [Compound 1],1.6
8,"N#Cc1ccc(NC(=O)c2ccc([N+](=O)[O-])o2)cc1 [Compound 19, 5-Nitro-furan-2-carboxylic acid(4-cyano-phenyl)-amide]",0.8
9,"CC(NC(=O)c1ccc([N+](=O)[O-])o1)c1ccccc1 (stereo not drawn) [Compound 29, 5-Nitro-furan-2-carboxylic acid(1-phenyl-ethyl)-amide]",1.6
10,"COc1cc(NC(=O)c2ccc([N+](=O)[O-])o2)ncn1 [Compound 51, 5-nitro-furan-2-carboxylic acid(6-methoxy-pyrimin-4-yl)-amide]",1.6
11,"O=C(NCc1ccccn1)c1ccc([N+](=O)[O-])o1 [Compound 49, 5-nitro-furan-2-carboxylic acid(pyridin-2-ylmethyl)-amide]",0.8
12,CN(C(=O)c1ccc([N+](=O)[O-])o1)c1ccccc1 [Compound 41],3.12
13,O=C(Nc1ccncc1)c1ccc([N+](=O)[O-])o1 [Compound 46],3.12
14,"COc1cccc2sc(NC(=O)c3ccc([N+](=O)[O-])o3)nc12 [Compound 50, 5-nitro-furan-2-carboxylic acid(4-methoxy-benzothiazol-2-yl)-amide]",1.6

# Same assay, conditions: Table 5; M. tuberculosis H37Ra, MIC90
row,SMILES,MIC [µg/mL]
1,"O=C(NCc1ccc(N2CCS(=O)(=O)CC2)cc1)c1ccc([N+](=O)[O-])o1 [Compound 94, 5-Nitro-furan-2-carboxylic acid 4-(1,1-dioxo-⅙-thiomorpholin-4-yl)-benzylamide]",6.25
2,"O=C(NCc1ccc(N2CC[S+]([O-])CC2)cc1)c1ccc([N+](=O)[O-])o1 [Compound 93, 5-Nitro-furan-2-carboxylic acid 4-(1-oxo-¼-thiomorpholin-4-yl)-benzylamide]",0.8

# Same assay, conditions: Table 6; M. tuberculosis H37Ra, MIC90
row,SMILES,MIC [µg/mL]
1,"O=C(c1ccc([N+](=O)[O-])o1)N1CCN(c2ccc(F)cc2)CC1 [Compound 108, [4-(4-Fluoro-phenyl)-piperazin-1-yl]-(^5-nitro-furan-2-yl)-methanone]",0.025

# Same assay, conditions: quoted
row,SMILES,MIC [µg/mL]
1,CN(C(=O)c1ccc([N+](=O)[O-])o1)c1ccccc1 [Compound 41],3.1

# Source: US20050222408A1, “Heterocyclic amides with anti-tuberculosis activity” (priority 2003, published 2005)
